{
  "source": "patent US8937063B2",
  "about": "(Trustees of Tufts College, priority 2010, dated 2015)",
  "key": {"[1]": {"tested_on": "high fat+fructose (HF/HS) diet hamsters", "assay": "18-day oral dosing lipid study in HF/HS hamsters", "format": "in vivo, male Golden Syrian hamsters", "experimental": "We examined the effects of diet modulation on the lipid profile of male Syrian Golden hamsters. Hamsters were ordered from Charles River Labs (Wilmington, Mass.), and requested to be 111-120 g in weight (correspondingly 56-61 days old). Hamsters were kept in cages of 4-5 per cage, and maintained on a standard light cycle of 12 hours on/12 hours off. All diets were obtained from Dyets, Inc. (Bethlehem, Pa.). “Normal Diet” was a standard rodent chow, catalog #5001, produced into pellets. Water and this standard chow diet were available to this group of hamsters ad libitum. Food was added to cages as needed, but no less frequently than twice per week. “High Fat Diet” was the same standard rodent chow supplemented with the following: 11.5% corn oil, 11.5% coconut oil, 0.5% cholesterol, and 0.25% deoxycholate. This is also available directly from Dyets, Inc., as catalog #611201. Both diets were ordered in 10 kg batches and stored at 4° C. for durations of the experiments (4-8 weeks), and at −20° C. for longer storage (up to six months). Water and this high fat diet were available to this group of hamsters ad libitum. The “High Fat+Fructose” group was fed the same fat-supplemented chow as the “high fat diet” group (#611201), but water was supplemented with fructose to a final concentration of 10%. Fructose was supplied from Now Foods (catalog #6931) and distributed by Lucky Vitamin (catalog #WB48432). Fructose water was prepared by adding 400 g of fructose to 4 L of water and stirring at room temperature until dissolved. Fructose water was stored at 4° C. until use. When provided to hamsters, fructose water was kept in a water bottle in the hamster cages at room temperature, exactly as standard water was. Fructose water and high fat chow were provided to this group of hamsters ad libitum. All animals remained on their respective diets for 21 days.\nTo begin this experiment, hamsters were randomly assigned to groups defined by the diet modifications above. After a fixed time, blood was collected from hamsters (N=3-4) to determine the lipid contents of the plasma. Because of limitations in the ability to adequately collect blood from hamsters, all blood samples were obtained via a terminal cardiac puncture preceded by asphyxiation with carbon dioxide. Blood (approximately 2 mL volume) was collected with a 22 G needle into a 5 mL syringe and transferred to a K2EDTA tube. The samples were kept on ice until centrifugation (14,000 rpm for 10 minutes at 4° C.) to separate plasma. Plasma was then aliquoted to tubes for storage at −80° C. until analysis.\nLipid parameters were determined using commercially available kits from Wako USA (Richmond, Va.) according to manufacturer's directions.\nMale Golden Syrian hamsters were purchased from Charles River Labs (111-120 g, 56-61 days) and acclimated to a high fat+fructose (herein, referred to as “HF/HS”) diet as described above for two weeks. Hamsters were assigned into cohorts by body weight after two weeks' acclimation to the diet. […] Hamsters were dosed once per day for a total of 18 days. All animals remained on the above-described HF/HS diet throughout the dosing period. Dosing solutions for each cohort were prepared for 7 days at a time, although enough was prepared to last for 8 days. Each solution was stored at room temperature between administrations. Cohorts were defined according to Table 2 below."}, "high fat-fed hamsters": {"tested_on": "high fat-fed hamsters", "assay": "Plasma glucose in chronically dosed hamsters", "format": "in vivo, hamster", "conditions": "ARI-001 1120 and 2240 mg/kg oral 18 days, vs vehicle", "experimental": "These animals were dosed for 18 consecutive days, while being on a HF/HS diet for a total of nearly 5 weeks. We also examined the glucose levels in the plasma of these animals. For pharmacokinetic studies, we utilized wild type mice for both single and repeated administration study. Finally, pharmacokinetic studies were corroborated by data from single and repeated administration to monkeys."}, "[2]": {"assay": "Single-dose pharmacokinetic study PO/IP in wild type mice", "format": "in vivo, C57BL/6 mice", "conditions": "for AUC / Cmax / Tmax / half-life: C57BL/6, mouse plasma", "experimental": "Plasma from the 19 hamsters dosed with ARI-001 in the above described 18-day study was analyzed for concentrations of ARI-001. Concentrations were determined for these samples, which were collected 24 hours after the final dose was administered. Briefly, plasma drug concentrations for the non-GLP pharmacokinetic experiments were determined by LC-MS using an Applied Biosystems 4000Qtrap spectrometer with electrospray ionization. Samples were prepared for analysis by precipitation of plasma proteins with cold methanol. HPLC of the samples was done with an Agilent Eclipse C18 column and a methanol/water gradient containing 0.1% formic acid and 5 mM ammonium acetate. ARI-001 was detected using multiple reaction monitoring (MRM) in the positive ion mode. For quantitation, a standard curve was measured by addition of known amounts of ARI-001 to plasma from untreated animals and preparing in a manner identical to the samples from treated animals. All plasma samples were spiked with 10 ng/mL of isotope-enriched ARI-001 which served as an internal standard for the LC-MS measurements. All compound concentrations are reported in μM. For correlation analysis, plasma concentrations of ARI-001 in a given animal were paired with that same animal's lipid parameter. […] These correlations are graphed in FIG. 6 and FIG. 7. Pearson r values were determined using all data points, as was the two-tailed P-value for the data set.\nWild type C57BL/6 mice were dosed with a single administration of ARI-001 in solution either via oral gavage (PO) or via intraperitoneal injection (IP). Blood samples were then collected at various time points over a 24-hour period; plasma was then analyzed for concentrations of ARI-001 as described earlier. ARI-001 was administered at either a dose of 2240 mg/kg as a single bolus via oral gavage, or a dose of 448 mg/kg as a single bolus via intraperitoneal injection."}, "[3]": {"assay": "Multiple administration (30 days) pharmacokinetic study in wild type mice", "format": "in vivo, C57BL/6 mice", "conditions": "996, 1493, 2240, 3360 mg/kg oral daily 30 days", "experimental": "Wild type C57BL/6 mice were dosed with ARI-001 in solution via oral gavage daily for 30 consecutive days. Over the course of five 24-hour periods, blood was collected, and the resultant plasma was analyzed for concentrations of ARI-001. Four doses were used: 996 mg/kg, 1493 mg/kg, 2240 mg/kg, and 3360 mg/kg. […] However, these values were time-independent, as there was no trend observed between these parameters and days of administration. See FIGS. 15A-15D and FIGS. 16A-16B."}, "[4]": {"conditions": "ARI-001 2240 mg/kg oral once daily 18 days, plasma, mean ± SD"}, "[5]": {"conditions": "ARI-001 2240 mg/kg vs molar equivalent niacin 1200 mg/kg, 18 days"}, "[6]": {"conditions": "PO, 2240 mg/kg single bolus oral gavage"}},
  "data": [
    {"compound": "O=C(O)c1ccc(CCN2CCOCC2)nc1", "note": "[ARI-001]", "values": [
      {"measurement": "TC (total cholesterol)", "setting": "[1]; ARI-001 2240 mg/kg (9.75 mmol/kg) oral gavage once daily 18 days, plasma, mean ± SD", "value": "343 ± 104", "unit": "mg/dL"},
      {"measurement": "HDL/TC", "setting": "[1]; ARI-001 2240 mg/kg oral once daily 18 days, mean ± SD", "value": "0.48 ± 0.07"},
      {"measurement": "FFA (free fatty acids)", "setting": "[1]; [4]", "value": "0.75 ± 0.15", "unit": "mEq/L"},
      {"measurement": "HDL", "setting": "[1]; [4]", "value": "186 ± 74", "unit": "mg/dL"},
      {"measurement": "LDL", "setting": "[1]; [4]", "value": "114 ± 33", "unit": "mg/dL"},
      {"measurement": "TG (triglycerides)", "setting": "[1]; [4]", "value": "138 ± 80", "unit": "mg/dL"},
      {"measurement": "efficacy relative to niacin, LDL cholesterol parameter", "setting": "[1]; [5]", "value": "at least 1.67 times"},
      {"measurement": "efficacy relative to niacin, total cholesterol parameter", "setting": "[1]; [5]", "value": "at least 1.54 times"},
      {"measurement": "increase of absolute HDL value compared to vehicle", "setting": "[1]; ARI-001 2240 mg/kg, 18 days", "value": 33, "unit": "%"},
      {"measurement": "TC (total cholesterol)", "setting": "[1]; ARI-001 […] (4.88 mmol/kg) oral gavage once daily 18 days, plasma, mean ± SD", "value": "653 ± 194", "unit": "mg/dL"},
      {"measurement": "plasma glucose", "setting": "high fat-fed hamsters", "value": "neither dose of ARI-001 produced any significant change in glucose levels"},
      {"measurement": "AUC", "setting": "[2]; IP, 448 mg/kg single bolus", "value": 439, "unit": "µM·h"},
      {"measurement": "Cmax", "setting": "[2]; IP, 448 mg/kg single bolus", "value": 450, "unit": "µM"},
      {"measurement": "Tmax", "setting": "[2]; IP, 448 mg/kg single bolus", "value": 15, "unit": "min"},
      {"measurement": "half-life", "setting": "[2]; IP, 448 mg/kg single bolus", "value": 30, "unit": "min"},
      {"measurement": "AUC", "setting": "[2]; [6]", "value": 1100, "unit": "µM·h"},
      {"measurement": "Cmax", "setting": "[2]; [6]", "value": 289, "unit": "µM"},
      {"measurement": "Tmax", "setting": "[2]; [6]", "value": 30, "unit": "min"},
      {"measurement": "half-life", "setting": "[2]; [6]", "value": 90, "unit": "min"},
      {"measurement": "remaining plasma concentration at the 24 hour timepoint", "setting": "[2]; single dose PO 2240 mg/kg or IP 448 mg/kg", "value": "undetectable"},
      {"measurement": "Cmax levels and AUC as a function of days of administration", "setting": "[3]", "value": "time-independent"},
      {"measurement": "Cmax levels and total 24-hour exposure (AUC) as a function of dose", "setting": "[3]", "value": "dose-dependent"}
    ]}
  ]
}
